Here are results for 5 molecules from PMC11324527, “Cryo-EM architecture of a near-native stretch-sensitive membrane microdomain” (Nature, 2024).

Data set [1] deals with T1, Pil1 (recombinant, reconstituted tubules) (Saccharomyces cerevisiae, UniProt P53252).
T1 construct: PIL1 in pCoofy6, 6xHis-Sumo3 tag cleaved by SenP2, E. coli BL21(DE3)pLysS; homodimer in helical lattice on lipid tubules; model stops before residue 275
T1 sequence (P53252 1-339): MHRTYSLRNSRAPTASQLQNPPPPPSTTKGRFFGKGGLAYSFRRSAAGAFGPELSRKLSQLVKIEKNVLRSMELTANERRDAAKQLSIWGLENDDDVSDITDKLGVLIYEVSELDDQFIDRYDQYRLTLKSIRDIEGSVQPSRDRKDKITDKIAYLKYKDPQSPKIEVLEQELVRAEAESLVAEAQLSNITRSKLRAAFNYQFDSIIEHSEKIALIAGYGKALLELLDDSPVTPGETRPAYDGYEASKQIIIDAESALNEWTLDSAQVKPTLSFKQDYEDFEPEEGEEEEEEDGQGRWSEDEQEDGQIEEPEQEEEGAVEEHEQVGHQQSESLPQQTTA
The data set is described as follows: cryo-EM helical reconstruction of reconstituted tubules. It counts as binding.

For another data set, the target named is Pil1–mCherry (Saccharomyces cerevisiae, UniProt P53252). The conditions noted are these: labelled compound; 1% PI(4,5)P2; PI(4,5)P2-dependent; pH 7.4, 150 mM KoAc, 2 mM MgAc.
Data set [2] concerns the molecule itself. The data set is described as follows: cryo-EM structure; native-source eisosome tubules isolated from S. cerevisiae with bound plasma membrane bilayer; helical reconstruction of nine tubule types, symmetry expansion and density subtraction; dimers in a helical lattice.
Data set [3] deals with the molecule itself. The data set can be described thus: cryo-EM structure; 15-20 uM recombinant Pil1 with about 2 mg/ml LUVs of known lipid mixtures, 30 °C for one hour, 20 mM HEPES pH 7.4, 150 mM KoAc, 2 mM MgAc; helical reconstruction; dimers in a helical lattice.

For the molecule `CC(C)CCC[C@@H](C)[C@H]1CC[C@H]2[C@@H]3CC=C4C[C@@H](O)CC[C@]4(C)[C@H]3CC[C@]12C` [cholesterol], the “cryo-EM helical reconstruction of reconstituted tubules” value in data set [1] (+PI(4,5)P2/+sterol (15% cholesterol), void pattern below amphipathic helix, sterol not modelled) was “this pattern results from the stable association of sterol molecules with the AH”.
Regarding `CC1=CC(C)=[N+]2C1=C(CC[C@@H](C)[C@H]1CC[C@H]3[C@@H]4CC=C5C[C@@H](O)CC[C@]5(C)[C@H]4CC[C@]13C)c1c(C)cc(C)n1[B-]2(F)F` [TF-cholesterol], on Pil1–mCherry, the mobile fraction entry is listed as “immobilized fraction of cholesterol interacts strongly with Pil1 and/or other lipids bound to the protein”.
In the case of `CCCCCCCC/C=C\CCCCCCCC(=O)OC[C@H](COP(=O)(O)OC[C@H](N)C(=O)O)OC(=O)CCCCCCC/C=C\CCCCCCCC` [DOPS], the “cryo-EM helical reconstruction of reconstituted tubules” value in data set [1] (+PI(4,5)P2/+sterol (15% cholesterol) mixture, site R43, K66, R70) is reported as “This density accommodates a phosphatidylserine (PS) lipid (DOPS is present in our lipid mixtures)”.

B1: Pil1 (native-source eisosome) (natural protein, S. cerevisiae (endogenous in yeast), UniProt P53252 1-339, looked up)
chain: MHRTYSLRNSRAPTASQLQNPPPPPSTTKGRFFGKGGLAYSFRRSAAGAFGPELSRKLSQLVKIEKNVLRSMELTANERRDAAKQLSIWGLENDDDVSDITDKLGVLIYEVSELDDQFIDRYDQYRLTLKSIRDIEGSVQPSRDRKDKITDKIAYLKYKDPQSPKIEVLEQELVRAEAESLVAEAQLSNITRSKLRAAFNYQFDSIIEHSEKIALIAGYGKALLELLDDSPVTPGETRPAYDGYEASKQIIIDAESALNEWTLDSAQVKPTLSFKQDYEDFEPEEGEEEEEEDGQGRWSEDEQEDGQIEEPEQEEEGAVEEHEQVGHQQSESLPQQTTA
notes: Pil1, BAR-domain eisosome protein of S. cerevisiae; model built up to residue 274 (C-terminal region from residue 275 removed, no density); Stands in the tubules as dimers in a helical lattice; also called Pil1/Lsp1; PIL1_YEAST; source: endogenous, untagged, S. cerevisiae
What is called stoichiometry N is the number of molecules, sites or subunits per partner or assembly. For B1, the “stoichiometry N” value in data set [2] was 2.

B2: Recombinant Pil1 (natural protein, S. cerevisiae, UniProt P53252 1-339, looked up)
chain: MHRTYSLRNSRAPTASQLQNPPPPPSTTKGRFFGKGGLAYSFRRSAAGAFGPELSRKLSQLVKIEKNVLRSMELTANERRDAAKQLSIWGLENDDDVSDITDKLGVLIYEVSELDDQFIDRYDQYRLTLKSIRDIEGSVQPSRDRKDKITDKIAYLKYKDPQSPKIEVLEQELVRAEAESLVAEAQLSNITRSKLRAAFNYQFDSIIEHSEKIALIAGYGKALLELLDDSPVTPGETRPAYDGYEASKQIIIDAESALNEWTLDSAQVKPTLSFKQDYEDFEPEEGEEEEEEDGQGRWSEDEQEDGQIEEPEQEEEGAVEEHEQVGHQQSESLPQQTTA
notes: Pil1 of S. cerevisiae, PIL1 cloned into pCoofy6 with primers from the start codon to the stop codon; Vector pCoofy6 (Addgene plasmid 43990) gives 6xHis-Sumo3; the Sumo3 tag was cleaved off with SenP2; It forms dimers in a helical lattice on liposomes; also called purified Pil1; reconstituted Pil1; source: E. coli BL21(DE3)pLysS, purified (HisTrap, HiTrap Q, SenP2 cleavage, Superdex 200); not …
As to B2, in data set [3], the “stoichiometry N” value worked out at 2.
